Measurements reported in patent US20230150953A1, “SUBSTITUTED ISOPHTHALIC ACID DIAMIDES” (Bayer Aktiengesellschaft, priority 2020, published 2023).

Columns and labels:
Format in all cases: in vivo
[1] = tested on: DIGSA Digitaria sanguinalis; assay: Pre-emergence herbicidal action against harmful plants; conditions: scored visually after 3 weeks vs untreated controls
Excerpt: (§1) The abbreviations used for the harmful plants mean: • ABUTH Abutilon theophrasti ALOMY Alopecurus myosuroides • AVEFA Avena fatua AMARE Amaranthus retroflexus • CYPES Cyperus esculentus DIGSA Digitaria sanguinalis • ECHCG Echinochloa crus-galli HORMU Hordeum murinum • LOLMU Lolium multiflorum LOLRI Lolium rigidum • MATIN Matricaria inodora PHBPU Pharbitis purpurea • POLCO Polygonum convolvulus SETVI Setaria viridis • STEME Stellaria media VERPE Veronica persica • VIOTR Viola tricolor 1. Pre-Emergence Herbicidal Action Against Harmful Plants Seeds of monocotyledonous and dicotyledonous weed plants and crop plants are laid out in sandy loam soil in wood-fiber pots and covered with soil. The compounds of the invention, formulated in the form of wettable powders (WP) or as emulsion concentrates (EC), are then applied to the surface of the covering soil in the form of an aqueous suspension or emulsion at a water application rate equivalent to 600 to 800 l/ha, with addition of 0.2% wetting agent. After the treatment, the pots are placed in a greenhouse and kept under good growth conditions for the trial plants. The damage to the test plants is scored visually after a test period of 3 weeks by comparison with untreated controls (herbicidal activity in percent (%): 100% activity=the plants have died, 0% activity=like control plants). […] The tables below illustrate, in an illustrative manner, the post-emergence herbicidal action of the compounds of the invention, the herbicidal activity being stated in percent.

[2] = tested on: PHBPU Pharbitis purpurea; assay: as above; conditions: scored visually after 3 weeks vs untreated controls
Excerpt: as §1

[3] = tested on: LOLRI Lolium rigidum; assay: as above; conditions: scored visually after 3 weeks vs untreated controls
Excerpt: as §1

[4] = tested on: AMARE Amaranthus retroflexus; assay: as above; conditions: scored visually after 3 weeks vs untreated controls
Excerpt: as §1

[5] = tested on: ABUTH Abutilon theophrasti; assay: as above; conditions: scored visually after 3 weeks vs untreated controls
Excerpt: as §1

[6] = tested on: POLCO Polygonum convolvulus; assay: as above; conditions: scored visually after 3 weeks vs untreated controls
Excerpt: as §1

[7] = tested on: ALOMY Alopecurus myosuroides; assay: as above; conditions: 80 g/ha, scored visually after 3 weeks vs untreated controls
Excerpt: as §1

[8] = tested on: MATIN Matricaria inodora; assay: as above; conditions: scored visually after 3 weeks vs untreated controls
Excerpt: as §1

[9] = tested on: SETVI Setaria viridis; assay: as above; conditions: scored visually after 3 weeks vs untreated controls
Excerpt: as §1

[10] = tested on: ECHCG Echinochloa crus-galli; assay: as above; conditions: scored visually after 3 weeks vs untreated controls
Excerpt: as §1

[11] = tested on: PHBPU Pharbitis purpurea; assay: Post-emergence herbicidal action against harmful plants; conditions: one-leaf stage, assessed visually after about 3 weeks vs untreated controls
Excerpt: (§2) The abbreviations used for the harmful plants mean: • ABUTH Abutilon theophrasti ALOMY Alopecurus myosuroides • AVEFA Avena fatua AMARE Amaranthus retroflexus • CYPES Cyperus esculentus DIGSA Digitaria sanguinalis • ECHCG Echinochloa crus-galli HORMU Hordeum murinum • LOLMU Lolium multiflorum LOLRI Lolium rigidum • MATIN Matricaria inodora PHBPU Pharbitis purpurea • POLCO Polygonum convolvulus SETVI Setaria viridis • STEME Stellaria media VERPE Veronica persica • VIOTR Viola tricolor 2. Post-Emergence Herbicidal Action Against Harmful Plants Seeds of monocotyledonous and dicotyledonous weed and crop plants are laid out in sandy loam soil in wood-fiber pots, covered with soil and cultivated in a greenhouse under good growth conditions. 2 to 3 weeks after sowing, the test plants are treated at the one-leaf stage. The compounds of the invention, formulated in the form of wettable powders (WP) or as emulsion concentrates (EC), are then sprayed onto the green parts of the plants in the form of an aqueous suspension or emulsion at a water application rate equivalent to 600 to 800 l/ha, with addition of 0.2% wetting agent. After the test plants have been left to stand in the greenhouse under optimal growth conditions for about 3 weeks, the action of the preparations is assessed visually in comparison to untreated controls (herbicidal action in percent (%): 100% activity=the plants have died, 0% activity=like control plants). […] The tables below illustrate, in an illustrative manner, the post-emergence herbicidal action of the compounds of the invention, the herbicidal activity being stated in percent.

[12] = tested on: AMARE Amaranthus retroflexus; assay: as above; conditions: one-leaf stage, assessed visually after about 3 weeks vs untreated controls
Excerpt: as §2

[13] = tested on: ECHCG Echinochloa crus-galli; assay: as above; conditions: 20 g/ha, one-leaf stage, assessed visually after about 3 weeks vs untreated controls
Excerpt: as §2

## CCNC(=O)c1c(C(F)(F)F)cc(F)c(C(=O)Nc2nnnn2C)c1C [Example 1-93]
[1]
  Pre-emergence action at 20 g/ha against DIGSA in %: 80%
  Pre-emergence action at 80 g/ha against DIGSA in %: 100%
[2]
  Pre-emergence action at 80 g/ha against PHBPU in %: 90%
[3]
  Pre-emergence action at 80 g/ha against LOLRI in %: 80%
[4]
  Pre-emergence action at 20 g/ha against AMARE in %: 100%
  Pre-emergence action at 80 g/ha against AMARE in %: 100%
[5]
  Pre-emergence action at 20 g/ha against ABUTH in %: 100%
  Pre-emergence action at 80 g/ha against ABUTH in %: 100%
[6]
  Pre-emergence action at 80 g/ha against POLCO in %: 80%
[7]
  Pre-emergence action at 80 g/ha against ALOMY in %: 80%
[8]
  Pre-emergence action at 80 g/ha against MATIN in %: 90%
[9]
  Pre-emergence action at 80 g/ha against SETVI in %: 80%
[10]
  Pre-emergence action at 80 g/ha against ECHCG in %: 90%
[11]; 5 g/ha
  Post-emergence action at 5 g/ha against PHBPU in %: 80%
[11]
  Post-emergence action at 20 g/ha against PHBPU in %: 90%
[12]
  Post-emergence action at 5 g/ha against AMARE in %: 90%
  Post-emergence action at 20 g/ha against AMARE in %: 90%

## Cc1c(C(=O)Nc2nnnn2C)c(F)cc(C(F)(F)F)c1C(=O)N(C)C [Example 1-95]
[1]
  Pre-emergence action at 20 g/ha against DIGSA in %: 80%
  Pre-emergence action at 80 g/ha against DIGSA in %: 90%
[4]
  Pre-emergence action at 20 g/ha against AMARE in %: 90%
  Pre-emergence action at 80 g/ha against AMARE in %: 100%
[6]
  Pre-emergence action at 80 g/ha against POLCO in %: 80%
[7]
  Pre-emergence action at 80 g/ha against ALOMY in %: 90%
[8]
  Pre-emergence action at 80 g/ha against MATIN in %: 90%
[9]; 20 g/ha
  Pre-emergence action at 20 g/ha against SETVI in %: 100%
[9]
  Pre-emergence action at 80 g/ha against SETVI in %: 100%
[12]
  Post-emergence action at 20 g/ha against AMARE in %: 90%

## Cc1c(C(=O)Nc2nnnn2C)c(F)cc(C(F)(F)F)c1C(=O)NCC(F)F [Example 1-385, N^1-(2,2-difluoroethyl)-4-fluoro-2-methyl-N^3-(1-methyl-1H-tetrazol-5-yl)-6-(trifluoromethyl)isophthalamide]
[1]
  Pre-emergence action at 20 g/ha against DIGSA in %: 80%
  Pre-emergence action at 80 g/ha against DIGSA in %: 100%
[2]
  Pre-emergence action at 80 g/ha against PHBPU in %: 80%
[4]
  Pre-emergence action at 20 g/ha against AMARE in %: 90%
  Pre-emergence action at 80 g/ha against AMARE in %: 100%
[5]
  Pre-emergence action at 80 g/ha against ABUTH in %: 80%
[7]
  Pre-emergence action at 80 g/ha against ALOMY in %: 90%
[8]
  Pre-emergence action at 80 g/ha against MATIN in %: 90%
[9]
  Pre-emergence action at 80 g/ha against SETVI in %: 90%
[12]
  Post-emergence action at 5 g/ha against AMARE in %: 90%
  Post-emergence action at 20 g/ha against AMARE in %: 90%

## CCNC(=O)c1c(C(F)(F)F)cc(OC)c(C(=O)Nc2nnnn2C)c1Cl [Example 1-388]
[12]
  Post-emergence action at 20 g/ha against AMARE in %: 80%

## CCn1nnnc1NC(=O)c1c(F)cc(C(F)(F)F)c(C(=O)NC)c1C [Example 2-92]
[1]
  Pre-emergence action at 20 g/ha against DIGSA in %: 80%
  Pre-emergence action at 80 g/ha against DIGSA in %: 100%
[2]
  Pre-emergence action at 80 g/ha against PHBPU in %: 80%
[3]
  Pre-emergence action at 80 g/ha against LOLRI in %: 90%
[4]
  Pre-emergence action at 20 g/ha against AMARE in %: 100%
  Pre-emergence action at 80 g/ha against AMARE in %: 100%
[5]
  Pre-emergence action at 80 g/ha against ABUTH in %: 80%
[6]
  Pre-emergence action at 20 g/ha against POLCO in %: 80%
  Pre-emergence action at 80 g/ha against POLCO in %: 90%
[8]
  Pre-emergence action at 20 g/ha against MATIN in %: 90%
  Pre-emergence action at 80 g/ha against MATIN in %: 90%
[11]
  Post-emergence action at 20 g/ha against PHBPU in %: 80%
[12]
  Post-emergence action at 5 g/ha against AMARE in %: 90%
  Post-emergence action at 20 g/ha against AMARE in %: 90%
[13]
  Post-emergence action at 20 g/ha against ECHCG in %: 80%

## CCNC(=O)c1c(C(F)(F)F)cc(F)c(C(=O)Nc2nnnn2CC)c1C [Example 2-93, N^1-ethyl-N^3-(1-ethyl-1H-tetrazol-5-yl)-4-fluoro-2-methyl-6-(trifluoromethyl)isophthalamide]
[1]
  Pre-emergence action at 80 g/ha against DIGSA in %: 100%
[2]; 20 g/ha
  Pre-emergence action at 20 g/ha against PHBPU in %: 80%
[2]
  Pre-emergence action at 80 g/ha against PHBPU in %: 90%
[4]
  Pre-emergence action at 20 g/ha against AMARE in %: 100%
  Pre-emergence action at 80 g/ha against AMARE in %: 100%
[5]
  Pre-emergence action at 80 g/ha against ABUTH in %: 100%
[7]
  Pre-emergence action at 80 g/ha against ALOMY in %: 90%
[8]
  Pre-emergence action at 20 g/ha against MATIN in %: 80%
  Pre-emergence action at 80 g/ha against MATIN in %: 90%
[9]
  Pre-emergence action at 80 g/ha against SETVI in %: 80%
[10]
  Pre-emergence action at 80 g/ha against ECHCG in %: 80%
[11]
  Post-emergence action at 20 g/ha against PHBPU in %: 90%
[12]
  Post-emergence action at 5 g/ha against AMARE in %: 80%
  Post-emergence action at 20 g/ha against AMARE in %: 90%

## CCn1nnnc1NC(=O)c1c(F)cc(C(F)(F)F)c(C(=O)N(C)C)c1C [Example 2-95, N′-(1-ethyl-1H-tetrazol-5-yl)-4-fluoro-N,N,2-trimethyl-6-(trifluoromethyl)isophthalamide]
[1]
  Pre-emergence action at 20 g/ha against DIGSA in %: 90%
  Pre-emergence action at 80 g/ha against DIGSA in %: 100%
[3]
  Pre-emergence action at 80 g/ha against LOLRI in %: 80%
[4]
  Pre-emergence action at 80 g/ha against AMARE in %: 100%
[5]
  Pre-emergence action at 80 g/ha against ABUTH in %: 100%
[6]
  Pre-emergence action at 20 g/ha against POLCO in %: 80%
  Pre-emergence action at 80 g/ha against POLCO in %: 100%
[7]
  Pre-emergence action at 80 g/ha against ALOMY in %: 90%
[8]
  Pre-emergence action at 80 g/ha against MATIN in %: 90%
[9]
  Pre-emergence action at 80 g/ha against SETVI in %: 90%
[10]
  Pre-emergence action at 80 g/ha against ECHCG in %: 80%
[11]
  Post-emergence action at 20 g/ha against PHBPU in %: 80%

## CCn1nnnc1NC(=O)c1c(F)cc(C(F)(F)F)c(C(=O)NCC2CC2)c1C [Example 2-384]
[1]
  Pre-emergence action at 20 g/ha against DIGSA in %: 80%
  Pre-emergence action at 80 g/ha against DIGSA in %: 100%
[2]
  Pre-emergence action at 80 g/ha against PHBPU in %: 80%
[4]
  Pre-emergence action at 20 g/ha against AMARE in %: 100%
  Pre-emergence action at 80 g/ha against AMARE in %: 100%
[5]
  Pre-emergence action at 20 g/ha against ABUTH in %: 90%
  Pre-emergence action at 80 g/ha against ABUTH in %: 100%
[6]
  Pre-emergence action at 20 g/ha against POLCO in %: 90%
  Pre-emergence action at 80 g/ha against POLCO in %: 100%
[7]
  Pre-emergence action at 80 g/ha against ALOMY in %: 80%
[8]
  Pre-emergence action at 80 g/ha against MATIN in %: 100%
[9]
  Pre-emergence action at 80 g/ha against SETVI in %: 80%
[10]
  Pre-emergence action at 80 g/ha against ECHCG in %: 80%
[12]
  Post-emergence action at 5 g/ha against AMARE in %: 90%
  Post-emergence action at 20 g/ha against AMARE in %: 90%
[13]
  Post-emergence action at 20 g/ha against ECHCG in %: 80%

## CCn1nnnc1NC(=O)c1c(F)cc(C(F)(F)F)c(C(=O)NCC#N)c1C [Example 2-386]
[4]
  Pre-emergence action at 80 g/ha against AMARE in %: 100%
[6]
  Pre-emergence action at 80 g/ha against POLCO in %: 80%
[8]
  Pre-emergence action at 80 g/ha against MATIN in %: 80%
